Tests used:
Format in all cases: functional
[1] = tested on: Bursaphelenchus xylophilus; assay: Nematicidal activity against Bursaphelenchus xylophilus at 0.5 mg/ml measured after 48 hr under microscope
[2] = tested on: Bursaphelenchus xylophilus; assay: microbe, parasite or virus in culture; settings: 48 h, at 0.125 mg/mL
Description: Nematicidal activity against Bursaphelenchus xylophilus assessed as mortality at 0.125 mg/ml measured after 48 hr under microscope

[3] = tested on: Bursaphelenchus xylophilus; assay: Nematicidal activity against Bursaphelenchus xylophilus assessed as mortality at 0.0625 mg/ml measured after 48 hr under microscope
[4] = tested on: Bursaphelenchus xylophilus; assay: Nematicidal activity against Bursaphelenchus xylophilus assessed as mortality at 0.25 mg/ml measured after 48 hr under microscope

| Compound | mortality at 500 µg/mL [1] [%] | mortality at 125 µg/mL [2] [%] | mortality at 62.5 µg/mL [3] [%] | mortality at 250 µg/mL [4] [%] |
| --- | --- | --- | --- | --- |
| CCCCCCCCCCC | 1.6 |  |  |  |
| CCCCCCCCCCCCCC | 1.7 |  |  |  |
| CCCCCCCCCCCCC | 3.3 |  |  |  |
| CCCCCCCCCC/C=C/C=O | 4.9 |  |  |  |
| CCCCCCC/C=C/CO | 100 | 100 | 43.3 | 100 |
| CCCCCCCCC/C=C/C=O | 5.1 |  |  |  |
| CCCCCCCCCCC/C=C/C=O | 3.3 |  |  |  |
| CCCCCCCCCCCCCCOC(C)=O | 0.9 |  |  |  |
| CCC/C=C/CO | 13 |  |  |  |
| CCCC/C=C/CO | 50.9 |  |  |  |
| CCCCC/C=C/CO | 97.4 |  |  | 31.5 |
| CCCCCC/C=C/CO | 100 | 45.5 |  | 100 |
| CCCCCCCC/C=C/CO | 100 | 100 | 45.1 | 100 |
| CCCCCCCCC/C=C/CO | 4.7 |  |  |  |
| CCCCCCCCCC/C=C/CO | 3.5 |  |  |  |
| CCCCCCCCCCC/C=C/CO | 2.6 |  |  |  |
| CCC/C=C/C=O | 95.6 | 22 |  | 83.1 |
| CCCCCCCCCCCCCO | 4.4 |  |  |  |
| CCCCC/C=C/C=O | 100 | 90.6 | 22.6 | 99 |
| CCCCCCCC/C=C/C=O | 24.8 |  |  |  |
| CCCC/C=C/C=O | 100 | 76.3 | 18 | 97.8 |

| Compound | mortality at 500 µg/mL [1] [%] | mortality at 125 µg/mL [2] [%] | mortality at 62.5 µg/mL [3] [%] | mortality at 250 µg/mL [4] [%] |
| --- | --- | --- | --- | --- |
| CCCCCCCO [1-HEPTANOL] | 29.8 |  |  |  |
| CCCCCCO [1-HEXANOL] | 12.6 |  |  |  |
| CCCCCC/C=C/C=O [2-NONENAL] | 100 | 99.8 | 47.4 | 100 |
| CCCCCCCCCC=O [DECANAL] | 7.9 |  |  |  |
| CCCCCCCCCC [DECANE] | 1.6 |  |  |  |
| CCCCCCCCCC(=O)O [DECANOIC ACID] | 100 | 100 | 59.8 | 100 |
| CCCCCCCCCCO [DECANOL] | 100 | 100 | 15.6 | 100 |
| CCCCCCCCCCOC(C)=O [DECYLACETATE] | 1.6 |  |  |  |
| CCCCCCCCCCCC=O [DODECANAL] | 6.6 |  |  |  |
| CCCCCCCCCCCC [DODECANE] | 1.6 |  |  |  |
| CCCCCCCCCCCC(=O)O [DODECANOATE] | 1.9 |  |  |  |
| CCCCCCCCCCCCO [DODECANOL] | 3.1 |  |  |  |
| CCCCCCCCCCCCOC(C)=O [DODECYLACETATE] | 1.7 |  |  |  |
| CCCCCCC=O [HEPTANAL] | 6 |  |  |  |
| CCCCCCC [HEPTANE] | 2.6 |  |  |  |
| CCCCCCC(=O)O [HEPTANOATE] | 100 |  |  | 53.7 |
| CCCCCCCOC(C)=O [HEPTYLACETATE] | 7.4 |  |  |  |
| CCCCCC=O [HEXANAL] | 4.2 |  |  |  |
| CCCCCC [HEXANE] | 4.4 |  |  |  |
| CCCCCC(=O)O [HEXANOATE] | 31.3 |  |  |  |
| CCCCCCOC(C)=O [HEXYL ACETATE] | 1.5 |  |  |  |

| Compound | mortality at 500 µg/mL [1] [%] | mortality at 125 µg/mL [2] [%] | mortality at 62.5 µg/mL [3] [%] | mortality at 250 µg/mL [4] [%] |
| --- | --- | --- | --- | --- |
| CCCCCCCCCCCCCC(=O)O [MYRISTIC ACID] | 3.8 |  |  |  |
| CCCCCCCCCCCCCCO [MYRISTYL ALCOHOL] | 4 |  |  |  |
| CCCCCCCCC=O [NONANAL] | 14.2 |  |  |  |
| CCCCCCCCC [NONANE] | 2.3 |  |  |  |
| CCCCCCCCC(=O)O [NONANOATE] | 100 | 100 | 40.1 | 100 |
| CCCCCCCCCO [NONANOL] | 100 | 81 | 4.7 | 100 |
| CCCCCCCCCOC(C)=O [NONYLACETATE] | 3.1 |  |  |  |
| CCCCCCCC=O [OCTANAL] | 13.6 |  |  |  |
| CCCCCCCC [OCTANE] | 3.8 |  |  |  |
| CCCCCCCC(=O)O [OCTANOIC ACID] | 100 | 50.1 |  | 98.9 |
| CCCCCCCCO [OCTANOL] | 100 |  |  | 17 |
| CCCCCCCCOC(C)=O [OCTYL ACETATE] | 4.9 |  |  |  |
| CCCCCCCCCCCCCC=O [TETRADECANAL] | 3.5 |  |  |  |
| CCCCCCCCCCCCC=O [TRIDECANAL] | 7.6 |  |  |  |
| CCCCCCCCCCCCC(=O)O [TRIDECANOATE] | 4.4 |  |  |  |
| CCCCCCCCCCCCCOC(C)=O [TRIDECYLACETATE] | 1.4 |  |  |  |
| CCCCCCCCCCC=O [UNDECANAL] | 7.4 |  |  |  |
| CCCCCCCCCCC(=O)O [UNDECANOATE] | 98.5 | 51.3 |  | 96 |
| CCCCCCCCCCCO [UNDECANOL] | 100 | 99.4 | 98.3 | 100 |
| CCCCCCCCCCCOC(C)=O [UNDECYLACETATE] | 2.3 |  |  |  |
